{"source": "BindingDB's records for PubMed 8226867", "about": "(Synaptic Pharmaceutical, 1993)"}
{"target": "5-hydroxytryptamine receptor 4 (Rattus norvegicus, UniProt Q62758)", "sequence (Q62758 whole entry)": "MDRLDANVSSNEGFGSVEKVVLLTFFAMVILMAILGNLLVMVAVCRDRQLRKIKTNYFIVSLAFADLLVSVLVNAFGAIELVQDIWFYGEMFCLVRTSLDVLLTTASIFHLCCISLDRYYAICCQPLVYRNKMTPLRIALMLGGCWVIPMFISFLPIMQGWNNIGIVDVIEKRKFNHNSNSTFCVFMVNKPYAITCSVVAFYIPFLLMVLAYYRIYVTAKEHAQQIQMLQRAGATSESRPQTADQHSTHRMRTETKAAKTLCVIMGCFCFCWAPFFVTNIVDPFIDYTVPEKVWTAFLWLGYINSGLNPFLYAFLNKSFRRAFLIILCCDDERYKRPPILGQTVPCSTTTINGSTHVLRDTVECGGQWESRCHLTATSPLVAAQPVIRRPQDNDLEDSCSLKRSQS", "units": {"Ki": "µM"}}
{"smiles": "COc1cc(N)c(Cl)cc1C(=O)NC1CN2CCC1CC2", "note": "(stereo unspecified) [ZACOPRIDE,R]", "Ki": 0.316}
{"smiles": "COc1ccc2[nH]cc(CCN)c2c1", "note": "[tryptamine, 5-Methoxy]", "Ki": 0.316}
{"target": "5-hydroxytryptamine receptor 4 (Mus musculus, UniProt P97288)", "sequence (P97288 whole entry)": "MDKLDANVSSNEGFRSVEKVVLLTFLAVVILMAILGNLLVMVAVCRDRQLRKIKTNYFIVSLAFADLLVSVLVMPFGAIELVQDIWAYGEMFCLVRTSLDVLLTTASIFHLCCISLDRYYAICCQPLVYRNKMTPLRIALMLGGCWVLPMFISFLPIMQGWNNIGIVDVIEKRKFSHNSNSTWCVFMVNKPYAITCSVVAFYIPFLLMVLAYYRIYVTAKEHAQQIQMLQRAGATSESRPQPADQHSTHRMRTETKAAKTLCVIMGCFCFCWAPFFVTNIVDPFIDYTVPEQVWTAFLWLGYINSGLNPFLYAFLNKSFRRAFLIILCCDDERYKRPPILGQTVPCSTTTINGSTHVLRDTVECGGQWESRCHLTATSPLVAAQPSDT", "units": {"Ki": "µM"}}
{"smiles": "NCCc1c[nH]c2ccccc12", "note": "[1H-indole-3-ethanamine]", "Ki": "> 10"}
{"target": "5-hydroxytryptamine receptor 6 (Homo sapiens, UniProt P50406)", "sequence (P50406 whole entry)": "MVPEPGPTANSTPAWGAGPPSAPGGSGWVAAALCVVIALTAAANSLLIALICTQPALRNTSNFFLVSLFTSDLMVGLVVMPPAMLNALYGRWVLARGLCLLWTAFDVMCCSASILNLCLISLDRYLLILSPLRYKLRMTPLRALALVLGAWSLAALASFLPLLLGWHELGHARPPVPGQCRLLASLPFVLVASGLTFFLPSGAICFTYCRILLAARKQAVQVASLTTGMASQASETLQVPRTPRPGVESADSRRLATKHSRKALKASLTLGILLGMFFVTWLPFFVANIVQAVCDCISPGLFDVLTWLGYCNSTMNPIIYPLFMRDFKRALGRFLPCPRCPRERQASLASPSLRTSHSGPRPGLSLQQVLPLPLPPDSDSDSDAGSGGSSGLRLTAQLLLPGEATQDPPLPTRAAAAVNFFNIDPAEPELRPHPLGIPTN", "units": {"Ki": "µM"}}
{"smiles": "Cc1nc2sccn2c(=O)c1CCN1CCC(=C(c2ccc(F)cc2)c2ccc(F)cc2)CC1", "Ki": 0.016}
{"smiles": "c1ccc2c(N3CCNCC3)cccc2c1", "Ki": 0.104}
{"smiles": "CC[C@@H](CO)NC(=O)[C@@H]1C=C2c3cccc4c3c(cn4C)C[C@H]2N(C)C1", "Ki": 0.372}
{"smiles": "CN1CC(C(=O)N[C@]2(C)O[C@@]3(O)C4CCCN4C(=O)[C@H](Cc4ccccc4)N3C2=O)CC2c3cccc4[nH]cc(c34)CC21", "note": "(stereo partly drawn) [7-Methyl-4,6,6a,7,8,9,10,10a-octahydro-indolo[4,3-fg]quinoline-9-carboxylic acid ((2R,5S,10bS)-5-benzyl-10b-hydroxy-2-methyl-3,6-dioxo-octahydro-oxazolo[3,2-a]pyrrolo[2,1-c]pyrazin-2-yl)-amide]", "Ki": 0.0054}
{"smiles": "CCN(CC)C(=O)[C@@H]1C=C2c3cccc4[nH]c(Br)c(c34)C[C@H]2N(C)C1", "note": "[LSD,2-Bromo]", "Ki": 0.0171}
{"smiles": "CN1C[C@@H](NS(=O)(=O)N(C)C)C[C@@H]2c3cccc4c3c(cn4C)C[C@H]21", "note": "[MESULERGINE]", "Ki": 1.72}
{"smiles": "CN1C[C@H](CNC(=O)OCc2ccccc2)C[C@@H]2c3cccc4c3c(cn4C)C[C@H]21", "note": "[METERGOLINE]", "Ki": 0.061}
{"smiles": "NCCc1c[nH]c2ccc(C(N)=O)cc12", "note": "[[3H]-5-carboxamidotryptamine]", "Ki": 0.253}
